Experimental data from patent US11506670B2, “Method of genome-wide direct identification of electrophile-sensing targets” (Cornell University, priority 2018, dated 2022).

What was measured:
HaloTag = assay: Reaction of purified recombinant HaloTag with HNE, in-gel fluorescence; assay type: biochemical; conditions: 0-16 equiv., 20-min incubation
Protocol: HEK293T cells expressing HaloTag alone treated under standard T-REX™ delivery conditions with Ht-PreHNE were exposed to UV light (0.3 mW/cm^2, 365 nm) for the indicated time periods at which point the cells were harvested, lysed, and subjected to Click coupling and in-gel fluorescence analysis followed by western blot. Error bars designate SD (N=3). […] Purified recombinant HaloTag was treated with either the photocaged precursor Ht-PreHNE (FIG. 17, inset, and FIG. 29) (2 equiv., lane a, positive control), or directly with reactive electrophile HNE (FIG. 29) (0, 2, 4, 8, 16 equiv., lane b, c, d, e, f, respectively). After 20-min incubation, the samples were analyzed by in-gel fluorescence. M, molecular weight ladder.

Ube2N = target: T1, Ube2N (Homo sapiens, UniProt P61088); assay: T-REX targeted delivery efficiency, in-gel fluorescence (Cy5 Click); assay type: cell-based; conditions: HEK293T, Halo-Ube2N
T1 construct: expressed in transfected cells; host or cells: HEK 293T
T1 sequence (P61088 1-152): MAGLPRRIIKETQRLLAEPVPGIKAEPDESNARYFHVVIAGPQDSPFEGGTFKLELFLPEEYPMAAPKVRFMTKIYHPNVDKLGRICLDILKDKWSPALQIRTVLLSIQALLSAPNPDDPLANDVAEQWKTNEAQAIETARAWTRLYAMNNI
Protocol: (§1) HEK 293T cells were maintained in 1×MEM+ Glutamax™ media supplemented with 10% FBS, 1×NEAA, 1× sodium pyruvate and 1× Pen-Strep. Cells were grown in a humidified, 5% CO2 incubator at 37° C. For in-gel fluorescence analysis and western blot, ˜0.7-0.8×10^6 HEK 293T cells were seeded in 8 cm^2 tissue culture dishes. 24 h later, cells were transfected using TransIT-2020 transfection reagent per the manufacturer's recommendation. Subsequent steps were performed under dim light. 24-36 h post transfection, monolayer of cells were treated with 25 μM Ht-PreHNE in serum-free media and incubated for 2.5 h. Cells were gently rinsed with serum-free media three times every 30 min over the next 1.5 h. Meanwhile, UV lamps were turned on 10 min prior to UV irradiation time. For samples designated for light exposure, lids were removed from the dishes and cells were placed under 365 nm UV light for 5-8 min. The cells were harvested, washed two times with ice-cold PBS and frozen in liquid nitrogen.
(§2) All steps were performed in dark or under dim light. Cells from 8 cm^2 plates were lysed in 30 μL buffer containing 50 mM HEPES (pH 7.6), 150 mM NaCl, 1% Nonidet P-40, 1× Roche cOmplete, mini, EDTA-free protease inhibitor cocktail, and 0.3 mM TCEP by rapid freeze-thaw (×3). […] Protein concentration of the clarified lysate was determined using Bradford assay. […]

Ube2V1 = target: T2, Ube2V1 (Homo sapiens, UniProt Q13404); assay: as above; assay type: cell-based; conditions: HEK293T, Halo-Ube2V1
T2 construct: the gene of interest (GOI) was PCR-amplified out from the original plasmid; expressed in transfected cells; host or cells: HEK 293T
Protocol: as §1, §2

T2 sequence (Q13404 1-170 isoform Q13404-2): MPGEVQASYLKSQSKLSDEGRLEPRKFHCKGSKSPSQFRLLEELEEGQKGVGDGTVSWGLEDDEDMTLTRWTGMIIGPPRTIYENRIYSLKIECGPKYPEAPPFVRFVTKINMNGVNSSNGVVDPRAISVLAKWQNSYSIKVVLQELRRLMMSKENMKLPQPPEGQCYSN

CCCCCC(O)/C=C/C=O (stereo not drawn) [HNE, 4-hydroxynonenal]
reaction of HaloTag with HNE (HaloTag): does not react
T-REX targeted delivery efficiency (Ube2N): < 2%
T-REX targeted delivery efficiency (Ube2V1): 5±2%
